Entries after “also recorded” stand apart in the source; their conditions may differ. No end group written: not given here.
Legend:
[1] = system: BaF/3 cells transfected with the EGFR (BaF/3-EGFR); test: Activatory ligand stimulated mitogenesis assay; assay type: cell-based; conditions: for potentiation of mitogenesis of BaF/3-EGFR cells: titrating concentrations of variant ligand, preliminary results, data not shown
Description: BaF/3 cells transfected with the EGFR (BaF/3-EGFR; Walker et al, Growth Factors 16: 53-67, 1998) are washed three times to remove residual IL-3 and resuspended in RPMI 1640+10% FCS. Cells are then seeded into 96 well plates using a Biomek 2000 (Beckman) at 2×10^4 cells per 200 microlitres and incubated for 4 h at 37 C in 10% CO2. To determine the efficacy of this system with a positive control, cells are first grown with titrating concentrations of activatory ligand EGF alone, to determine the minimum amount of ligand required to achieve maximal or sub-maximal receptor-mediated mitogenesis for these cells. […] Titrating concentrations of ErbB variant ligands are added to the cells to test their mitogenic potential. In a similar manner, BaF/3 or different cells expressing a range of ErbB receptors, rendering them mitogenically responsive to ErbB ligand stimulation, are used to test these and other variant ligands for activatory ligand stimulated mitogenesis (exemplified in Harari et. al., 1999).

[2] = biological target: T1, soluble ErbB2 (amino acids 1-509) (Homo sapiens, UniProt P04626); test: BIAcore receptor binding assay, immobilized soluble ErbB2; conditions: peptide up to 10 uM; BIAcore 3000, CM-5 chip; data not shown
T1 construct: soluble ErbB2 (amino acids 1-509)
Description: (§1) Biosensor analyses were performed using a BIAcore™ 3000. A CM-5 (research grade) sensor chip was immobilized with soluble EGFR (amino acids 1-501), soluble EGFR (amino acids 1-621) and soluble ErbB2 (amino acids 1-509) on flowcells 2, 3 and 4, respectively. Immobilizations were performed using amine coupling chemistry in 10 mM Sodium Acetate at pH 4.2. Varying concentrations (1.25 μM, 2.5 μM, 5 μM and 10 μM) of peptides were injected (30 μl) over the sensor surfaces in HBS running buffer (10 mM HEPES, 3.4 mM EDTA, 0.15M NaCl, 0.005% Tween 20, pH 7.4) at a flow rate of 5 μl/min. The surfaces were then regenerated by injecting 10 μl of 10 mM NaOH at a flow rate of 20 μl/min. The resulting sensor curves were subtracted against the blank channel (Flowcell 1) to yield the specific response.

Betacellulin = test: BIAcore ligand-ligand interaction, immobilized Betacellulin; assay type: binding, human or bovine; conditions: peptide 0.3-10 μM (in some cases 50 μM); BIAcore 3000, blank channel subtracted; FIG. 6
Description: Biosensor analyses were performed using a BIAcore™ 3000. A CM-5 (research grade) sensor chip was immobilized with recombinant human or bovine EGF, TGF alpha and Betacellulin on flowcells 2, 3 and 4, respectively. Immobilizations were performed using amine coupling chemistry in 10 mM Sodium Acetate at pH 4.2. Varying concentrations (0.3 μM, 0.6 μM, 1.25 μM, 2.5 μM, 5 μM, 10 μM [and in some cases 50 μM]) of hNRG2(1-32), mEGF(1-32) & hEGF(1-32) were injected (30 μl) over the sensor surfaces in HBS running buffer (10 mM HEPES, 3.4 mM EDTA, 0.15M NaCl, 0.005% Tween 20, pH 7.4) at a flow rate of 5 μl/min. The surfaces were then regenerated by injecting 10 μl of 10 mM NaOH at a flow rate of 20 μl/min. The resulting sensor curves were subtracted against the blank channel (Flowcell 1) to yield the specific response.

[3] = system: soluble ErbB1 (soluble EGFR amino acids 1-501 and 1-621); test: BIAcore receptor binding assay, immobilized soluble EGFR; conditions: peptide up to 10 uM; BIAcore 3000, CM-5 chip; data not shown
Description: as §1

| binding to immobilized soluble ErbB2 [2] | binding to immobilized soluble ErbB1 [3] | Substance | mitogenic response of BaF/3-EGFR cells ([1]; positive control at a concentration of approximately 200 μM) | potentiation of mitogenesis of BaF/3-EGFR cells [1] | binding to immobilized Betacellulin (Betacellulin) |
| --- | --- | --- | --- | --- | --- |
|  |  | EGF: activatory ligand EGF purified from mouse salivary glands, positive control (NSYPGCPSSYDGYCLNGGVCMHIESLDSYTCNCVIGYSGDRCQTRDLRWWELR; Epidermal growth factor; UniProt P01132 977-1029, looked up) [reference compound] | sub-maximal to maximal mitogenic response |  |  |
| failed to demonstrate measurable binding | failed to demonstrate measurable binding | GHARKCNETAKSYCVNGGVCYYIEGINQLSCK-OH (also: air-oxidised refolding, disulfide pairing not given here) [hNRG2(1-32)] |  | do not potentiate mitogenesis | weak binding; also recorded: low affinity interaction |
|  |  | NSDSECPLSHDGYCLHDGVCMYIEALDKYACK-OH (not fully specified; C-terminal free acid) [hEGF(1-32)] |  |  | no binding |
| failed to demonstrate measurable binding | failed to demonstrate measurable binding | NSYPGCPSSYDGYCLNGGVCMHIESLDSYTCK-OH (C-terminal free acid) [mEGF(1-32)] |  | do not potentiate mitogenesis | weak binding; also recorded: low affinity interaction |

From US20090131308A1, “Splice Variants of ErbB Ligands, Compositions and Uses Thereof” (AGOS BIOTECH LTD., priority 2003, published 2009)
